Where a name gives a salt, the structure may show the parent alone. One block for each compound: values may come before it.
What was measured:
[1] = tested on: circulating platelet levels; assay: Daily intraperitoneal injection in mice, circulating platelet levels and safety; format: in vivo
Protocol: Administration of 100 μg/day of the preferred compound was sufficient to decrease platelet counts within 24-48 hours stabilizing to 50% of normal by day 5.

megakaryocytic lineage = assay: Inhibition of megakaryocytic endoreplication; format: cell-based
Solubility in water = format: physicochemical; details: salt form as named
From the text: 2-Amino-5,6-dichloro-3,4-dihydroquinazoline (compound (E) wherein X and Y are both Cl) is the preferred compound for use in reducing the platelet count in patients and is preferably provided as the hydrobromide salt which is water soluble.

platelet aggregation = assay: Platelet aggregation; format: cell-based; details: even at high concentrations (10 μg/mL)
CD15+ myeloid lineage = assay: Effect on the CD15+ myeloid lineage in vitro; format: cell-based
[2] = Cardiovascular screening and side effect profile of the compound; format: in vivo
platelet count = assay: Platelet reducing properties; details: in vivo
[3] = In vitro metabolism of Anagrelide in human liver microsomes; format: in vitro ADME
From the text: (§1) Metabolism of Anagrelide was examined in a number of in vitro systems including rat and human liver microsomes, human whole blood, human bone marrow cells and rat intestinal mucosa. […] It appears that in vivo metabolism occurs by a route that cannot be readily mimicked in vitro. It is hypothesized that the first step of in vivo metabolism involves hydroxylation of the carbon α to the carbonyl followed by amide hydrolysis and loss of the elements of glyoxylic acid.

[4] = In vitro metabolism of Anagrelide in human whole blood; format: in vitro ADME
From the text: as §1

[5] = In vitro metabolism of Anagrelide in human bone marrow cells; format: in vitro ADME
From the text: as §1

[6] = In vitro metabolism of Anagrelide in rat intestinal mucosa; format: in vitro ADME
From the text: as §1

[7] = parameters: species or system Rhesus Monkeys; details: rhesus monkey, in vivo
From the text: In a recent pharmacokinetic and excretion study of [^14C]

[8] = clinical use of Anagrelide; cited from earlier work
[9] = In vitro metabolism of Anagrelide in rat liver microsomes; format: in vitro ADME
From the text: as §1

[10] = cited from earlier work

Structure (SMILES): Br.NC1=Nc2ccc(Cl)c(Cl)c2CN1 [2-amino-5,6-dichloro-3,4-dihydroquinazoline hydrobromide]
circulating platelet levels ([1]; 6- to 8-month old mice, daily intraperitoneal injection): dose-dependent decrease
time to decrease in platelet counts ([1]; mice, 100 μg/day intraperitoneal): 24 to 48 h
platelet counts stabilized level ([1]; mice, 100 μg/day intraperitoneal, by day 5): 50 % of normal
apparent signs of toxicity or haemorrhaging ([1]; mice, high doses (300 μg)): did not alter white blood cell counts, bleeding time or lead to any apparent signs of toxicity or haemorrhaging
inhibition of megakaryocytic endoreplication (megakaryocytic lineage): profound inhibition
dose for inhibition of megakaryocytic endoreplication relative to doses reported for Anagrelide (megakaryocytic lineage; compared with those reported for Anagrelide): 500 times less
solubility in water (Solubility in water): water soluble
inhibition of platelet aggregation (platelet aggregation): did not inhibit platelet aggregation
effect on the CD15+ myeloid lineage (CD15+ myeloid lineage): no effect

Structure (SMILES): NC1=Nc2ccc(Cl)c(Cl)c2CN1 [2-amino-5,6-dichloro-3,4-dihydroquinazoline]
antihypertensive activity ([2]; cardiovascular screening): Only very mild antihypertensive activity
side effects of inotropy and haemorrhaging associated with Anagrelide ([2]; in vivo): without the side effects of inotropy and haemorrhaging
reduction of platelet counts (platelet count): active molecule for causing reduction of platelet counts

solubility in water (Solubility in water): nearly insoluble in water
Structure (SMILES): O=C1CN2Cc3c(ccc(Cl)c3Cl)N=C2N1 [Anagrelide hydrochloride]

metabolism in vitro [3]: completely resistant to metabolism
metabolism in vitro [4]: completely resistant to metabolism
metabolism in vitro [5]: completely resistant to metabolism
metabolism in vitro [6]: completely resistant to metabolism
metabolism in vitro [9]: completely resistant to metabolism
Structure (SMILES): O=C1CN2Cc3c(ccc(Cl)c3Cl)N=C2N1 [Anagrelide, 6,7-dichloro-1,5-dihydroimidazo-[2,1-b]-quinazolin-2(3H)-one]
detection of the human metabolite 2-amino-5,6-dichloro-3,4-dihydroquinazoline [7]: no human metabolite (2-amino-5,6-dichloro-3,4-dihydroquinazoline) was detected
congestive heart failure (cardiovascular side effect incidence) [8]: 1.5%
palpitations (cardiovascular side effect incidence) [8]: 26.1%
tachycardia (cardiovascular side effect incidence) [8]: 7.5%
vasodilation (cardiovascular side effect incidence) [8]: < 5%
Anagrelide dose excreted as unchanged drug in the urine ([10]; human subjects): < 1%
peak plasma concentrations of the parent drug ([10]; human subjects): 6 ng/mL
urinary radioactivity accounted for by a minimum of four to five metabolites ([10]; human, in vivo): over 75%
